Among the data in PubChem BioAssay (NCI) are TGI and GI50 values, retold here.

Values joined by “and” are separate entries in the source; they are usually repeats but may differ in a detail not shown here. Equal entries are not always repeated.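 Exposure lasted 48 hours, with cells grown in 96-well plates and compounds tested at five concentrations. GI50: concentration for 50% inhibition of growth. TGI denotes the concentration required for complete inhibition of growth.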 Some results are limits rather than exact numbers.

The first experiment deals with CCRF-CEM leukemia. Put plainly: DTP human tumour cell line panel, 48 h.
In the case of `COCCOC(=O)C1=C(O)c2ccccc2S(=O)(=O)N1C`, the TGI – broadly, the concentration at which net growth stops – was > 100 µM.
Same read-out and setting: the same measure for `CNC(=O)OCc1nc(SSC(C)(C)C)n(C)c1COC(=O)NC`: 4.54 µM.
The same measure, in the same setting: the same measure for `CC(C)C(O)(C(C)C)C(C)C`: > 100 µM.
In the case of `CC(C)CNc1nc(-c2ccccc2Cl)nc2ccccc12`, the GI50 (as a rule, the concentration that inhibits growth by half) is 18.8 µM and the TGI is 43.3 µM.
In the case of `CN(C)CCOc1ccc([N+](=O)[O-])c2cccnc12`, the TGI was > 100 µM.
On the same count and under the same terms, next, `CC(C)(C)c1cc([N+](=O)[O-])cc([N+](=O)[O-])c1O`: > 10 µM.
As for `COc1ccc2c(c1)C(=O)/C(=C/c1cccc(OCC(=O)c3ccccc3)c1)O2`, the GI50 is 0.81 µM and the TGI was found to be 2.42 µM.
For the molecule `Cc1ccc(S(=O)(=O)N=Nc2c(O)[nH]c3cc(O)c(C(=O)O)cc23)cc1`, the TGI was > 100 µM.
The same measure, in the same setting: the same measure for `CSC(SC)(C(=O)O)c1cc(-c2c(Cl)cccc2Cl)no1`: > 100 µM.

Another experiment deals with UACC-62 melanoma. Briefly: DTP human tumour cell line panel, 48 h.
Consider `C[C@]12CCc3sc(Nc4ccc(OC(F)(F)F)cc4)nc3C1=CC[C@@H]1[C@@H]2CC[C@]2(C)C(=O)CC[C@@H]12`, for which the GI50 was 3.03 µM and the TGI amounted to 10.3 µM.
Take `CCN1C(=O)c2ccc3c4c(ccc(c24)C1=O)C(=O)N(CCCNCc1ccccc1OC)C3=O`: the GI50 was 0.468 µM and the TGI turned out to be 1.63 µM.
`O=C(/C=C/c1ccccc1)Nc1ncc(Cc2ccccc2Cl)s1`: the GI50 was 0.326 µM and the TGI is > 100 µM.
For `CN(c1ccc(NC(=O)Nc2c(Cl)cccc2Cl)cc1)c1ccnc(Nc2cccc(CS(C)(=O)=O)c2)n1`, in that order: 3.11 µM and 8.36 µM.
In the case of `CCCCCCCCCCCCCCCCCCOC[C@H](COP(=O)(O)O[C@H]1[C@H](O)[C@@H](O)[C@H](O)C[C@H]1O)OC`, the GI50 was > 100 µM and 16.4 µM; the TGI was > 100 µM and 30.1 µM.
In the case of `CN(C)C/C=C/C(=O)Nc1ccc(C(=O)N[C@@]2(C)CCC[C@@H](Nc3ncc(Cl)c(-c4c[nH]c5ccccc45)n3)C2)nc1`, the GI50 was < 0.01 µM and the TGI amounted to 0.0728 µM.
For `Nc1n[nH]c2cccc(C#Cc3cccc(NC(=O)c4cccc(C(F)(F)F)c4)c3)c12`, the GI50 is 2.54 µM and the TGI stood at 11.4 µM.
The matching figures for `CCCCCCCCn1ccc2cc(NC(=O)Cn3cc(CN4CCCCCC4)nn3)ccc21`: 1.93 µM and 3.45 µM.
On to `COCCOC(=O)C1=C(O)c2ccccc2S(=O)(=O)N1C`, for which the TGI is > 100 µM.
On to `CNC(=O)OCc1nc(SSC(C)(C)C)n(C)c1COC(=O)NC`, for which the concentration for total growth inhibition (TGI) is 5.09 µM.
On the same count and under the same terms, the same measure for `CC(C)C(O)(C(C)C)C(C)C`: > 100 µM.
Consider `CC(C)CNc1nc(-c2ccccc2Cl)nc2ccccc12`, for which the GI50 is 14.3 µM and the TGI stood at 27.4 µM.
Turning to `CN(C)CCOc1ccc([N+](=O)[O-])c2cccnc12`, the total growth inhibition concentration (TGI) is > 100 µM.
Still for that read-out and setting: the same measure for `O=C(O)CSCCc1ccccc1`: > 100 µM.
Still for that read-out and setting: next, `CC(C)(C)c1cc([N+](=O)[O-])cc([N+](=O)[O-])c1O`: > 10 µM.
Turning to `COc1ccc2c(c1)C(=O)/C(=C/c1cccc(OCC(=O)c3ccccc3)c1)O2`, the GI50 is 13.4 µM and the TGI was 27 µM.
For `Cc1ccc(S(=O)(=O)N=Nc2c(O)[nH]c3cc(O)c(C(=O)O)cc23)cc1`, the TGI was > 100 µM.
For `O=C(O)CCCc1ccc2ccc3ccccc3c2c1`, the TGI is > 100 µM.
The same measure, in the same setting: next, `CNC(=O)OCc1c(COC(=O)NC)c(-c2ccc(-c3ccccc3)cc2)n(C)c1C`: 5.46 µM; `CSC(SC)(C(=O)O)c1cc(-c2c(Cl)cccc2Cl)no1`: > 100 µM.

The next experiment concerns IGROV1 ovarian. Put plainly: DTP human tumour cell line panel, 48 h.
In the case of `C[C@]12CCc3sc(Nc4ccc(OC(F)(F)F)cc4)nc3C1=CC[C@@H]1[C@@H]2CC[C@]2(C)C(=O)CC[C@@H]12`, the GI50 was 3.32 µM and the TGI is 10.8 µM.
For `CCN1C(=O)c2ccc3c4c(ccc(c24)C1=O)C(=O)N(CCCNCc1ccccc1OC)C3=O`, in that order: 1.28 µM and 4.37 µM.
For the molecule `O=C(/C=C/c1ccccc1)Nc1ncc(Cc2ccccc2Cl)s1`, the GI50 was 0.477 µM and the TGI is > 100 µM.
For `CN(c1ccc(NC(=O)Nc2c(Cl)cccc2Cl)cc1)c1ccnc(Nc2cccc(CS(C)(=O)=O)c2)n1`, the GI50 was 4.57 µM and the TGI was > 17 µM.
Turning to `CCCCCCCCCCCCCCCCCCOC[C@H](COP(=O)(O)O[C@H]1[C@H](O)[C@@H](O)[C@H](O)C[C@H]1O)OC`, the GI50 is 21.9 µM and 3.28 µM; the TGI was 60.6 µM and 13.5 µM.
As for `Nc1n[nH]c2cccc(C#Cc3cccc(NC(=O)c4cccc(C(F)(F)F)c4)c3)c12`, the GI50 is 1.53 µM and the TGI came out at 4.31 µM.
For `CCCCCCCCn1ccc2cc(NC(=O)Cn3cc(CN4CCCCCC4)nn3)ccc21`, in that order: 1.72 µM and 3.33 µM.
Take `COCCOC(=O)C1=C(O)c2ccccc2S(=O)(=O)N1C`: the TGI was > 100 µM.
In turn, `CNC(=O)OCc1nc(SSC(C)(C)C)n(C)c1COC(=O)NC` registered a TGI of 22.9 µM.
As for `CC(C)C(O)(C(C)C)C(C)C`, the TGI was > 100 µM.
For `CC(C)CNc1nc(-c2ccccc2Cl)nc2ccccc12`, the GI50 is 19.7 µM and the TGI is > 100 µM.
With `CN(C)CCOc1ccc([N+](=O)[O-])c2cccnc12`, the TGI is > 100 µM.
Turning to `O=C(O)CSCCc1ccccc1`, the TGI is > 100 µM.
Still for that read-out and setting: the same measure for `CC(C)(C)c1cc([N+](=O)[O-])cc([N+](=O)[O-])c1O`: > 10 µM.
For `COc1ccc2c(c1)C(=O)/C(=C/c1cccc(OCC(=O)c3ccccc3)c1)O2`, the GI50 is 3.66 µM and the TGI was 13.3 µM.
`Cc1ccc(S(=O)(=O)N=Nc2c(O)[nH]c3cc(O)c(C(=O)O)cc23)cc1`: the TGI was > 100 µM.
Consider `O=C(O)CCCc1ccc2ccc3ccccc3c2c1`, for which the TGI is > 100 µM.
Molecule `CNC(=O)OCc1c(COC(=O)NC)c(-c2ccc(-c3ccccc3)cc2)n(C)c1C` returned a TGI of 12 µM.
As for `CSC(SC)(C(=O)O)c1cc(-c2c(Cl)cccc2Cl)no1`, the TGI was > 100 µM.
